# Data reported in patent publication US20090270371A1, “QUINOLINE DERIVATIVES USEFUL IN THE TREATMENT OF MGLUR5 RECEPTOR-MEDIATED DISORDERS” (priority 2005, published 2009).
# pKi: −log10 of the molar value.
# Target: T1, rat mGluR5 receptors (Rattus norvegicus, UniProt P31424)
# T1 construct: rat cerebro-cortical membrane preparation was used; from tissue; host or cells: rat cerebral cortex membranes
# Experiment: mGluR5 receptor binding test, rat cerebro-cortical membrane preparation, [3H]-M-MPEP
# Conditions: affinity for rat mGluR5 receptors; [3H]-M-MPEP (2 nM) radioligand
# Method: The mGluR5 receptor binding was determined according to the modified method of Gasparini et. al. (Bioorg. Med. Chem. Lett., 2000, 12, 407). Based on the high homology between the human and rat mGluR5 receptors, rat cerebro-cortical membrane preparation was used to determine the binding characteristics of the reference compounds and novel compounds to the rat mGluR5. The A18 cell line expressing hmGluR5a (purchased from Euroscreen) was used to determine binding characteristics of the chemical compounds to the human mGluR5a receptor. [^3H]-M-MPEP (2 nM) was used as radioligand. The nonspecific binding was determined in the presence of 10 μM M-MPEP.
# T1 sequence (P31424 21-1203): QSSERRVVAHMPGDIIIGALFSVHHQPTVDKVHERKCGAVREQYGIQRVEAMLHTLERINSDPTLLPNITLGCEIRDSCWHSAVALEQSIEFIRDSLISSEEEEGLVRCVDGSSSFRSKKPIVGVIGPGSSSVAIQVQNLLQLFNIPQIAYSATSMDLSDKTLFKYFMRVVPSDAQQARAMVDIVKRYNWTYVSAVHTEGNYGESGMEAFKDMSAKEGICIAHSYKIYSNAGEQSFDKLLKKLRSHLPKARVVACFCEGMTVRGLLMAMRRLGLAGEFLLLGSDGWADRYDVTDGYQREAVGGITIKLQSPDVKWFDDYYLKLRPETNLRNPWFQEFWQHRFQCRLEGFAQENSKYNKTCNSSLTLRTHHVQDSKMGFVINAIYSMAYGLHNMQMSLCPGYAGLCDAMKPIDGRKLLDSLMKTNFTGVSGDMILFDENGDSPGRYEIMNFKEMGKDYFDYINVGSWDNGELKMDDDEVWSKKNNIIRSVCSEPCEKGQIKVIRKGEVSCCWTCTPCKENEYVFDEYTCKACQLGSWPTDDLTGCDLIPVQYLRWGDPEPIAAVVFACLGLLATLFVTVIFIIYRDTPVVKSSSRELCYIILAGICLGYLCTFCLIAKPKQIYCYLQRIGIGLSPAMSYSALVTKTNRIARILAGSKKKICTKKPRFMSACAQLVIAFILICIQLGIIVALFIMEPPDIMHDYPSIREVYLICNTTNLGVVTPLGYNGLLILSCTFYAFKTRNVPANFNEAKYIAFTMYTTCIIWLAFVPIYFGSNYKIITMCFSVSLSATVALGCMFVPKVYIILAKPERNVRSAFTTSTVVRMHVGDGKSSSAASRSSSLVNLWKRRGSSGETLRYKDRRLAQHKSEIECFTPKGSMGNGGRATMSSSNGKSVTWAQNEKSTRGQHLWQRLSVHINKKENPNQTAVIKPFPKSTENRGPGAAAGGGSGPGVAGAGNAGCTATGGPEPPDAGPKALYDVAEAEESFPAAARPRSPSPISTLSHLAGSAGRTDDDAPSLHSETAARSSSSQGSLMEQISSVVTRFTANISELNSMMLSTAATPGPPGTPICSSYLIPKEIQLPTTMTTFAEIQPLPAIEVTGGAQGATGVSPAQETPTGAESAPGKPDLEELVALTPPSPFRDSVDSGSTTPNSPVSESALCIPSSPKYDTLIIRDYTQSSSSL
row,pKi,Compound
1,< 6.30,Cc1ccc(S(=O)(=O)c2cnc3ccccc3c2N2CCN(Cc3ccccc3)CC2)cc1 [Compound 80]
2,< 6.30,CCOC(=O)C1CCN(c2c(S(=O)(=O)c3ccccc3)cnc3ccc(CC)cc23)CC1 [Compound 81]
3,< 6.30,O=S(=O)(c1ccccc1)c1cnc2cc3c(cc2c1N1CCCC1)OCCO3 [Compound 82]
4,< 6.30,CCc1ccc2ncc(S(=O)(=O)c3ccc(C)cc3)c(N(CC)CC)c2c1 [Compound 83]
5,< 6.30,CCc1ccc2ncc(S(=O)(=O)c3ccc(Cl)cc3)c(N(CC)CC)c2c1 [Compound 84]
6,< 6.30,CCc1ccc2ncc(S(=O)(=O)c3ccc(C)cc3)c(NCc3ccccc3)c2c1 [Compound 85]
7,< 6.30,Cc1ccc(S(=O)(=O)c2cnc3ccc(C)cc3c2N2CCCCCC2)cc1 [Compound 86]
8,< 6.30,COc1ccc2ncc(S(=O)(=O)c3ccc(C)cc3)c(NCc3ccccc3)c2c1 [Compound 87]
9,< 6.30,COc1ccc(S(=O)(=O)c2cnc3ccc(OC)cc3c2N2CCC(C)CC2)cc1 [Compound 88]
10,6.30 to 6.70,O=S(=O)(c1ccccc1)c1cnc2ccccc2c1N1CCCCCC1 [Compound 89]
11,< 6.30,Cc1ccc2ncc(S(=O)(=O)c3ccccc3)c(N3CCN(Cc4ccccc4)CC3)c2c1 [Compound 90]
12,< 6.30,Cc1ccc(S(=O)(=O)c2cnc3cc4c(cc3c2N2CCC(C)CC2)OCCO4)cc1 [Compound 92]
13,< 6.30,Cc1ccc2ncc(S(=O)(=O)c3ccc(Cl)cc3)c(N3CCCCC3)c2c1 [Compound 93]
14,< 6.30,Cc1ccc(S(=O)(=O)c2cnc3cc4c(cc3c2N2CCOCC2)OCCO4)cc1 [Compound 94]
15,< 6.30,O=S(=O)(c1ccccc1)c1cnc2cc3c(cc2c1N1CCCCCC1)OCCO3 [Compound 95]
16,< 6.30,CCc1ccc2ncc(S(=O)(=O)c3ccc(C)cc3)c(N3CCCCC3)c2c1 [Compound 96]
17,< 6.30,Cc1ccc(S(=O)(=O)c2cnc3ccccc3c2N2CCC3(CC2)OCCO3)cc1 [Compound 97]
18,< 6.30,CCOC(=O)C1CCN(c2c(S(=O)(=O)c3ccc(C)cc3)cnc3ccc(OCC)cc23)CC1 [Compound 98]
19,< 6.30,CCOC(=O)C1CCCN(c2c(S(=O)(=O)c3ccc(C)cc3)cnc3ccc(F)cc23)C1 (stereo not shown) [Compound 99]
20,< 6.30,O=S(=O)(c1ccc(Cl)cc1)c1cnc2ccc(F)cc2c1N1CCN(Cc2ccccc2)CC1 [Compound 100]
21,< 6.30,Cc1ccc(S(=O)(=O)c2cnc3ccccc3c2N2CCOCC2)cc1 [Compound 101]
22,< 6.30,CCOc1ccc2ncc(S(=O)(=O)c3ccc(OC)cc3)c(N3CCC(C)CC3)c2c1 [Compound 102]
23,< 6.30,COc1ccc2ncc(S(=O)(=O)c3ccc(C)cc3)c(NCc3ccc(F)cc3)c2c1 [Compound 103]
24,< 6.30,Cc1ccc(S(=O)(=O)c2cnc3ccc(C)cc3c2N2CCOCC2)cc1 [Compound 104]
25,< 6.30,CCc1ccc2ncc(S(=O)(=O)c3ccc(Cl)cc3)c(N3CCOCC3)c2c1 [Compound 105]
26,< 6.30,COc1ccc2ncc(S(=O)(=O)c3ccc(Cl)cc3)c(N3CCN(Cc4ccccc4)CC3)c2c1 [Compound 106]
27,< 6.30,O=S(=O)(c1ccccc1)c1cnc2ccc(F)cc2c1N1CCCCC1 [Compound 107]

row,pKi,Compound
1,< 6.30,CC1CCN(c2c(S(=O)(=O)c3ccccc3)cnc3ccc(Cl)cc23)CC1 [Compound 108]
2,< 6.30,COc1ccc2ncc(S(=O)(=O)c3ccccc3)c(N3CCC(C)CC3)c2c1 [Compound 109]
3,< 6.30,CCN(CC)c1c(S(=O)(=O)c2ccc(C)cc2)cnc2ccc(OC)cc12 [Compound 110]
4,< 6.30,COc1ccc2ncc(S(=O)(=O)c3ccccc3)c(N3CCN(Cc4ccccc4)CC3)c2c1 [Compound 111]
5,< 6.30,COc1ccc2ncc(S(=O)(=O)c3ccc(Cl)cc3)c(N3CCCCCC3)c2c1 [Compound 112]
6,< 6.30,COc1cccc(Nc2c(S(=O)(=O)c3ccc(C)cc3)cnc3ccccc23)c1 [Compound 113]
7,< 6.30,CCOc1ccc2ncc(S(=O)(=O)c3ccc(C)cc3)c(N3CCC(C)CC3)c2c1 [Compound 114]
8,< 6.30,O=S(=O)(c1ccccc1)c1cnc2cc3c(cc2c1N1CCN(c2ccccc2)CC1)OCCO3 [Compound 115]
9,< 6.30,CCOc1ccc2ncc(S(=O)(=O)c3ccccc3)c(N3CCC(C)CC3)c2c1 [Compound 116]
10,< 6.30,CCOc1ccc2ncc(S(=O)(=O)c3ccc(C)cc3)c(N3CCN(c4ccccc4F)CC3)c2c1 [Compound 117]
11,< 6.30,O=S(=O)(c1ccccc1)c1cnc2ccc(F)cc2c1N1CCCCCC1 [Compound 118]
12,< 6.30,CCOc1ccc2ncc(S(=O)(=O)c3ccc(C)cc3)c(N3CCCCCC3)c2c1 [Compound 119]
13,< 6.30,O=S(=O)(c1ccc(Cl)cc1)c1cnc2ccc(F)cc2c1N1CCOCC1 [Compound 120]
14,< 6.30,COc1ccc2ncc(S(=O)(=O)c3ccc(C)cc3)c(NCc3ccc(C)cc3)c2c1 [Compound 121]
15,< 6.30,COc1ccc(S(=O)(=O)c2cnc3ccc(Cl)cc3c2NCc2ccc(C)cc2)cc1 [Compound 122]
16,< 6.30,Cc1ccc2ncc(S(=O)(=O)c3ccc(Cl)cc3)c(N3CCN(c4ccccc4)CC3)c2c1 [Compound 123]
17,< 6.30,CCN(CC)c1c(S(=O)(=O)c2ccccc2)cnc2ccc(F)cc12 [Compound 124]
18,< 6.30,CCOc1ccc2ncc(S(=O)(=O)c3ccc(OC)cc3)c(N3CCOCC3)c2c1 [Compound 125]
19,< 6.30,CCc1ccc2ncc(S(=O)(=O)c3ccc(OC)cc3)c(N3CCN(C)CC3)c2c1 [Compound 127]
20,< 6.30,COc1ccc2ncc(S(=O)(=O)c3ccccc3)c(N3CCN(C)CC3)c2c1 [Compound 128]
21,< 6.30,CCOC(=O)N1CCN(c2c(S(=O)(=O)c3ccc(Cl)cc3)cnc3ccccc23)CC1 [Compound 129]
22,< 6.30,CCc1ccc2ncc(S(=O)(=O)c3ccc(C)cc3)c(NCc3ccc(F)cc3)c2c1 [Compound 130]
23,6.30 to 6.70,CCOC(=O)N1CCN(c2c(S(=O)(=O)c3ccc(Cl)cc3)cnc3ccc(C)cc23)CC1 [Compound 131]
24,< 6.30,CCOC(=O)N1CCN(c2c(S(=O)(=O)c3ccc(C)cc3)cnc3ccc(C)cc23)CC1 [Compound 132]
25,< 6.30,CCN(CC)c1c(S(=O)(=O)c2ccc(Cl)cc2)cnc2ccc(F)cc12 [Compound 133]
26,< 6.30,CCc1ccc2ncc(S(=O)(=O)c3ccc(OC)cc3)c(N3CCCCC3)c2c1 [Compound 134]
27,< 6.30,O=S(=O)(c1ccccc1)c1cnc2cc3c(cc2c1N1CCCCC1)OCCO3 [Compound 135]

row,pKi,Compound
1,< 6.30,CC1CCN(c2c(S(=O)(=O)c3ccccc3)cnc3ccc(F)cc23)CC1 [Compound 136]
2,> 6.70,CC1CCN(c2c(S(=O)(=O)c3ccc(Cl)cc3)cnc3ccc(F)cc23)CC1 [Compound 137]
3,6.30 to 6.70,CC1CCN(c2c(S(=O)(=O)c3cc(Cl)cc(Cl)c3)cnc3ccc(F)cc23)CC1 [Compound 138]
4,< 6.30,CC1CCN(c2c(S(=O)(=O)c3cc(F)cc(F)c3)cnc3ccc(F)cc23)CC1 [Compound 139]
5,> 6.70,CC1CCN(c2c(S(=O)(=O)c3cccc(C#N)c3)cnc3ccc(F)cc23)CC1 [Compound 140]
6,> 6.70,CC1CCN(c2c(S(=O)(=O)c3ccc(F)cc3)cnc3ccc(F)cc23)CC1 [Compound 141]
7,> 6.70,COc1ccc(S(=O)(=O)c2cnc3ccc(F)cc3c2N2CCC(C)CC2)cc1 [Compound 142]
8,6.30 to 6.70,COc1ccc(S(=O)(=O)c2cnc3ccc(F)cc3c2N2CCC(C)CC2)cc1OC [Compound 143]
9,6.30 to 6.70,CC1CCN(c2c(S(=O)(=O)c3cccc(F)c3)cnc3ccc(F)cc23)CC1 [Compound 144]
10,> 6.70,COc1cccc(S(=O)(=O)c2cnc3ccc(F)cc3c2N2CCC(C)CC2)c1 [Compound 145]
11,> 6.70,Cc1ccc(S(=O)(=O)c2cnc3ccc(F)cc3c2N2CCC(C)CC2)cc1C [Compound 146]
12,> 6.70,COc1ccc(S(=O)(=O)c2cnc3ccc(F)cc3c2N2CCC(C)CC2)cc1Cl [Compound 147]
13,> 6.70,CC1CCN(c2c(S(=O)(=O)c3cccc(Cl)c3)cnc3ccc(F)cc23)CC1 [Compound 148]
14,> 6.70,CC1CCN(c2c(S(=O)(=O)c3ccc(Cl)c(Cl)c3)cnc3ccc(F)cc23)CC1 [Compound 149]
15,6.30 to 6.70,CC1CCN(c2c(S(=O)(=O)c3ccc(C#N)cc3)cnc3ccc(F)cc23)CC1 [Compound 150]
16,> 6.70,Cc1cc(C)cc(S(=O)(=O)c2cnc3ccc(F)cc3c2N2CCC(C)CC2)c1 [Compound 151]
17,> 6.70,CC1CCN(c2c(S(=O)(=O)c3ccc(F)c(F)c3)cnc3ccc(F)cc23)CC1 [Compound 152]
18,6.30 to 6.70,Cc1ccc2ncc(S(=O)(=O)c3cc(Cl)cc(Cl)c3)c(N3CCC(C)CC3)c2c1 [Compound 153]
19,6.30 to 6.70,Cc1ccc2ncc(S(=O)(=O)c3cc(F)cc(F)c3)c(N3CCC(C)CC3)c2c1 [Compound 154]
20,< 6.30,Cc1ccc2ncc(S(=O)(=O)c3cccc(C#N)c3)c(N3CCC(C)CC3)c2c1 [Compound 155]
21,> 6.70,Cc1ccc2ncc(S(=O)(=O)c3ccc(F)cc3)c(N3CCC(C)CC3)c2c1 [Compound 156]
22,6.30 to 6.70,COc1ccc(S(=O)(=O)c2cnc3ccc(C)cc3c2N2CCC(C)CC2)cc1 [Compound 157]
23,6.30 to 6.70,Cc1ccc2ncc(S(=O)(=O)c3ccc(Cl)cc3)c(N3CCC(C)CC3)c2c1 [Compound 158]
24,> 6.70,Cc1ccc2ncc(S(=O)(=O)c3cccc(F)c3)c(N3CCC(C)CC3)c2c1 [Compound 159]
25,> 6.70,COc1cccc(S(=O)(=O)c2cnc3ccc(C)cc3c2N2CCC(C)CC2)c1 [Compound 160]
